In article PMC5289826 (PLoS ONE, 2017):

Experiments:
[1] = test system: T1, recombinant human 11β-HSD2; assay: 11β-HSD2 enzyme activity in cell lysates (cortisol to cortisone); assay type: biochemical; settings: 1 μM compound; lysates of HEK-293 cells; 50 nM cortisol
T1 construct: expressed in transfected cells
Description: (§1) Human embryonic kidney (HEK-293) cells either stably expressing human 11β-HSD1 and H6PDH (HHH7 clone, [38]) or 11β-HSD2 (AT8 clone, [39]), or transiently expressing human 17β-HSD1 or 17β-HSD2, were cultivated in Dulbecco’s modified Eagle medium (DMEM) containing 4.5 g/L glucose, 10% fetal bovine serum, 100 U/mL penicillin, 0.1 mg/mL streptomycin, 1 × MEM nonessential amino acids, and 10 mM HEPES buffer, pH 7.4. Cells were washed with phosphate-buffered saline (PBS), centrifuged for 4 min at 150 × g, and the cell pellets were snap frozen on dry ice and stored at −80°C until further use.
(§2) Cell lysates were resuspended in TS2 buffer (100 mM NaCl, 1 mM EGTA, 1 mM EDTA, 1 mM MgCl2, 250 mM sucrose, 20 mM Tris-HCl, pH 7.4), followed by sonication at 4°C using a Hielscher UP50H ultrasonic processor (0.3 cycle, 20 amplitude %, 20 impulses; Hielscher Ultrasonics GmbH, Teltow Germany). Cell lysates, reaction mixture, and either vehicle (DMSO) or inhibitor were incubated for 10 min at 37°C in a final volume of 22.2 μL. The solvent concentration was 0.1%. […] 11β-HSD2 activity was measured in the presence of 50 nM cortisol and 500 μM NAD^+. An amount of 50 nCi of radiolabeled tracer substrate was included in the experiments. […] The bands of the corresponding steroids were excised, followed by scintillation counting and calculation of the amount of substrate conversion. Data were obtained from at least three independent measurements. Glycyrrhetinic acid (CTRL 1) was used as positive control for 11β-HSD1 and 11β-HSD2 inhibition, apigenin (CTRL 2) for 17β-HSD1, and compound 22 from Vuorinen et al. [40](CTRL 3) for 17β-HSD2 inhibition.

[2] = target: T2, recombinant human 11β-HSD1 (Homo sapiens, UniProt P28845); assay: 11β-HSD1 enzyme activity in cell lysates (cortisone to cortisol, radiolabeled tracer, TLC); assay type: biochemical; settings: for 11β-HSD1 Residual activity, % of control at 100 nM: 100 nM compound; for 11β-HSD1 Residual activity, % of control at 100 nM / 11β-HSD1 Residual activity, % of control at 1 μM: lysates of HEK-293 cells, 200 nM cortisone, mean of three experiments; for 11β-HSD1 Residual activity, % of control at 1 μM: 1 μM compound; for activity towards 11β-HSD1, effect of substituent (in words): SAR comparison within the series
T2 construct: expressed in transfected cells
T2 sequence (P28845 whole entry): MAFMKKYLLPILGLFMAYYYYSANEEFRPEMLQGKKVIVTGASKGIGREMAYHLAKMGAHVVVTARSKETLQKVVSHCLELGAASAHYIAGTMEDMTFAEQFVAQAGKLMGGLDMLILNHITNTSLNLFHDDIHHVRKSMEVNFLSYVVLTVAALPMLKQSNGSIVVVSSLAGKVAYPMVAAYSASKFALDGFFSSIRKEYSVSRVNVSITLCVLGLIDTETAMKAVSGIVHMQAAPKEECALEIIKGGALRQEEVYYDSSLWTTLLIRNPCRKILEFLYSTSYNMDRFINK
Description: as §1, §2

human skin biopsies = assay: Dermal total collagen content in ex vivo human skin biopsies (Picrosirius Red); settings: 10 nM, 100 nM and 1 μM cortisone; p<0.01
Description: Ex vivo skin experiments were performed as contract research by Cutech Biotechnology following the Helsinki declaration and who obtained permission as well as informed consent from the patient (Padova, Italy). Human skin from abdominal plastic surgery of a donor was used. Skin samples were cut in pieces of approximately 8 × 3 mm (diameter × thickness) and cultured in an air-liquid interface in a perforated ring of stainless steel in contact with culture medium (modified Williams’ E medium, Sigma Aldrich) up to day 6. The culture medium was renewed on day 0 and day 3. The test compounds were applied topically and renewed daily. The application was performed as follows: skin biopsies were gently cleaned with a cotton pad and 4 μL of 10 μM or 100 μM test compound were applied on top of each piece and covered with a 6 mm (diameter) delivery membrane (CoTran 9728 Controlled Caliper Ethylene Vinyl Acetate Membrane, 3M, St. Paul, MN, USA).
Skin viability was assessed in two skin biopsies after 6 days of treatment using methylthiazolyldiphenyl‐tetrazolium bromide (MTT, Sigma Aldrich) staining. Total dermal collagen in skin sections was semi-quantitatively evaluated by Picrosirius Red histochemical staining (using Picric Acid, Fast Green FCF and Direct Red from Sigma Aldrich) that dyes collagen fibers in purple-red. […] The evaluation was performed by estimating both color intensity and distribution using IMAGE J (NIH) analysis software, allowing to obtain a semi-quantitative evaluation of dermal collagen (collagen score). Two slides of each skin sample were processed by image acquisition and related analysis (i.e. 12 images for each treatment).

Row | SMILES | IC50 [2] [nM] | 11β-HSD1 Residual activity, % of control at 100 nM [2] | 11β-HSD1 Residual activity, % of control at 1 μM [2] | melting point [°C] | activity towards 11β-HSD1, effect of substituent (in words) ([2]; cell lysates) | activity towards 11β-HSD1 (in words) ([2]; at 1 μM, cell lysates) | 11β-HSD2 Residual activity, % of control at 1 μM [1] | decrease in dermal collagen (human skin biopsies)
1 | Cc1ccc(-c2cccc(C(=O)N3CCC(C)CC3)c2)cc1 [1b, (4’-Methyl-[1,1’-biphenyl]-3-yl)(4-methylpiperidin-1-yl)methanone] | 47.7 | 52 % of control | 1 % of control | – | – | – | > 90 % of control | –
2 | Cc1ccc(-c2cccc(C(=O)N3CCCCCC3)c2)cc1 [1e, Azepan-1-yl(4’-methyl-[1,1’-biphenyl]-3-yl)methanone] | 37.4 | 17 % of control | – | 109 to 111 | – | – | > 90 % of control | –
3 | Cc1ccc(-c2cccc(C(=O)N3CCCCCC3)c2)cn1 [2e, Azepan-1-yl-(3-(6-methylpyridin-3-yl)phenyl)methanone] | 46 | 30 % of control | – | – | – | – | > 90 % of control | –
4 | Cc1ccc(-c2cccc(C(=O)N3CCCC(C)(C)C3)c2)cc1F [3a, (3,3-Dimethylpiperidin-1-yl)(3’-fluoro-4’-methyl-[1,1’-biphenyl]-3-yl)methanone] | 47.2 | 60 % of control | 3 % of control | – | – | – | > 90 % of control | –
5 | Cc1ccc(-c2cccc(C(=O)N3CCC(C)CC3)c2)cc1F [3b] | 53.8 | 44 % of control | 1 % of control | – | – | – | > 90 % of control | –
6 | Cc1ccc(-c2cccc(C(=O)N3CCOC(C)(C)C3)c2)cc1F [3c, (2,2-Dimethylmorpholino)(3’-fluoro-4’-methyl-[1,1’-biphenyl]-3-yl)methanone] | 27.9 | 14 % of control | 1 % of control | – | – | – | – | –
7 | Cc1ccc(-c2cccc(C(=O)N3CC(C)OC(C)C3)c2)cc1F (centres unmarked) [3d, (2,6-Dimethylmorpholino)(3’-fluoro-4’-methyl-[1,1’-biphenyl]-3-yl)methanone] | – | 44 % of control | 4 % of control | – | – | – | > 90 % of control | –
8 | Cc1ccc(-c2cccc(C(=O)N3CCC[C@H]3C(N)=O)c2)cc1F [3f, (S)-1-(3’-fluoro-4’-methyl-[1,1’-biphenyl]-3-carbonyl)-pyrrolidine-2-carboxamide] | – | > 90 % of control | > 90 % of control | 73 to 75 | abolished the activity | – | > 90 % of control | –
9 | CC1CCN(C(=O)c2cccc(-c3ccc(F)cc3)c2)CC1 [4b, (4’-Fluoro-[1,1’-biphenyl]-3-yl)(4-methylpiperidin-1-yl)methanone] | – | 43 % of control | 4 % of control | – | – | – | > 90 % of control | –
10 | CC1CCN(C(=O)c2cccc(-c3ccc(Cl)cc3)c2)CC1 [5b, (4’-Chloro-[1,1’-biphenyl]-3-yl)(4-methylpiperidin-1-yl)methanone] | – | 58 % of control | 3 % of control | – | – | – | > 90 % of control | –
11 | C[C@]12CCC(=O)C=C1CC[C@@H]1[C@@H]2C(=O)C[C@@]2(C)[C@H]1CC[C@]2(O)C(=O)CO [cortisone, reference compound] | – | – | – | – | – | – | – | 20–26%

Now from value to compound, other results behind:

Row | IC50 [2] [nM] | 11β-HSD1 Residual activity, % of control at 100 nM [2] | 11β-HSD1 Residual activity, % of control at 1 μM [2] | melting point [°C] | activity towards 11β-HSD1, effect of substituent (in words) ([2]; cell lysates) | activity towards 11β-HSD1 (in words) ([2]; at 1 μM, cell lysates) | SMILES | 11β-HSD2 Residual activity, % of control at 1 μM [1] | decrease in dermal collagen (human skin biopsies)
12 | – | 50 % of control | 2 % of control | 116 to 117 | – | – | O=C(c1cccc(-c2ccc(Cl)cc2)c1)N1CCCCCC1 [5e, Azepan-1-yl(4’-chloro-[1,1’-biphenyl]-3-yl)methanone] | > 90 % of control | –
13 | 62.2 | 49 % of control | 4 % of control | – | – | – | CC1CCN(C(=O)c2cccc(-c3ccccc3Cl)c2)CC1 [6b, (2’-Chloro-[1,1’-biphenyl]-3-yl)(4-methylpiperidin-1-yl)methanone] | > 90 % of control | –
14 | – | > 90 % of control | > 90 % of control | – | – | inactive | NC(=O)[C@@H]1CCCN1C(=O)c1cccc(-c2ccccc2Cl)c1 [6f, (S)-1-(2’-Chloro-[1,1’-biphenyl]-3-carbonyl)-pyrrolidine-2-carboxamide] | > 90 % of control | –
15 | – | 28 % of control | – | 184 to 185 | – | – | O=C(c1cccc(-c2ccc(O)cc2)c1)N1CCCCCC1 [7e, Azepan-1-yl(4’-hydroxy-[1,1’-biphenyl]-3-yl)methanone] | > 90 % of control | –
16 | – | 70 % of control | 8 % of control | – | lower activity | – | CC1CCN(C(=O)c2cccc(-c3cccc(O)c3)c2)CC1 [8b, (3’-Hydroxy-[1,1’-biphenyl]-3-yl)(4-methylpiperidin-1-yl)methanone] | > 90 % of control | –
17 | – | 65 % of control | 19 % of control | 188 to 190 | substantial loss of activity | – | CC1CCN(C(=O)c2cccc(-c3ccc(C(N)=O)cc3)c2)CC1 [9b, 3’-(4-methylpiperidine-1-carbonyl)-[1,1’-biphenyl]-4-carboxamide] | > 90 % of control | –
18 | – | 89 % of control | 34 % of control | – | substantial loss of activity | – | CC1CCN(C(=O)c2cccc(-c3cccc(C(N)=O)c3)c2)CC1 [10b, 3’-(4-methylpiperidine-1-carbonyl)-[1,1’-biphenyl]-3-carboxamide] | > 90 % of control | –
19 | – | 69 % of control | – | – | lower activity | – | Cc1ccc(-c2cccc(C(=O)N3CCCCCC3)c2)cc1C [11e, Azepan-1-yl(3’,4’-dimethyl-[1,1’-biphenyl]-3-yl)methanone] | > 90 % of control | –
